Legend:
Test in all cases: Test E pre-/postemergence greenhouse test
Format in all cases: in vivo
[1] = system: arrowleaf sida (Sida rhombifolia)
Method in brief: (§1)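 Test chemicals in a surfactant-containing solvent mixture were applied preemergence to seeded silt loam and postemergence to 1- to 4-leaf seedlings. Plants stayed in the greenhouse 14 to 21 d, then were scored visually from 0 (no effect) to 100 (complete control).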

[2] = system: crabgrass, Brazil (Digitaria horizontalis)
Method in brief: as §1

[3] = system: dayflower, VA (Virginia (VA) dayflower, Commelina virginica)
Method in brief: as §1

[4] = system: field bindweed (Convolvulus arvensis)
Method in brief: as §1

[5] = system: foxtail, green (Setaria viridis); conditions: Preemergence
Method in brief: as §1

[6] = system: goosegrass (Eleusine indica); conditions: Preemergence
Method in brief: as §1

[7] = system: hairy beggarticks (Bidenspilosa)
Method in brief: as §1

[8] = system: johnsongrass (Sorghum halepense); conditions: Preemergence
Method in brief: as §1

kochia (Kochia scoparia) = system: kochia (Kochia scoparia)
Method in brief: as §1

[9] = system: lambsquarters (Chenopodium album); conditions: Preemergence
Method in brief: as §1

[10] = system: morningglory (Ipomoea coccinea); conditions: Preemergence
Method in brief: as §1

[11] = system: poinsettia, wild (Euphorbia heterophylla)
Method in brief: as §1

[12] = system: ryegrass, Italian (Lolium multiflorum)
Method in brief: as §1

[13] = system: sandbur (southern sandbur, Cenchrus echinatus)
Method in brief: as §1

SMILES: Cc1ccc2ccc(C)c(-c3c(O)c(Cl)nn(C)c3=O)c2c1 [Cpd. No. 20, 6-chloro-4-(2,7-dimethyl-1-naphthalenyl)-5-hydroxy-2-methyl-3(2H)-pyridazinone]
- Plant response rating, Arrowleaf Sida ([1]; Postemergence, 16 g ai/ha): 60
- Plant response rating, Arrowleaf Sida ([1]; Postemergence, 31 g ai/ha): 70
- Plant response rating, Arrowleaf Sida ([1]; Postemergence, 62 g ai/ha): 70
- Plant response rating, Arrowleaf Sida ([1]; Postemergence, 125 g ai/ha): 75
- Plant response rating, Arrowleaf Sida ([1]; Preemergence, 16 g ai/ha): 90
- Plant response rating, Arrowleaf Sida ([1]; Preemergence, 31 g ai/ha): 90
- Plant response rating, Arrowleaf Sida ([1]; Preemergence, 62 g ai/ha): 80
- Plant response rating, Arrowleaf Sida ([1]; Preemergence, 125 g ai/ha): 85
- Plant response rating, Crabgrass, Brazil ([2]; Postemergence, 16 g ai/ha): 20
- Plant response rating, Crabgrass, Brazil ([2]; Postemergence, 31 g ai/ha): 40
- Plant response rating, Crabgrass, Brazil ([2]; Postemergence, 62 g ai/ha): 60
- Plant response rating, Crabgrass, Brazil ([2]; Postemergence, 125 g ai/ha): 85
- Plant response rating, Crabgrass, Brazil ([2]; Preemergence, 16 g ai/ha): 75
- Plant response rating, Crabgrass, Brazil ([2]; Preemergence, 31 g ai/ha): 90
- Plant response rating, Crabgrass, Brazil ([2]; Preemergence, 62 g ai/ha): 100
- Plant response rating, Crabgrass, Brazil ([2]; Preemergence, 125 g ai/ha): 100
- Plant response rating, Dayflower, VA ([3]; Postemergence, 16 g ai/ha): 30
- Plant response rating, Dayflower, VA ([3]; Postemergence, 31 g ai/ha): 50
- Plant response rating, Dayflower, VA ([3]; Postemergence, 62 g ai/ha): 60
- Plant response rating, Dayflower, VA ([3]; Postemergence, 125 g ai/ha): 70
- Plant response rating, Dayflower, VA ([3]; Preemergence, 16 g ai/ha): 0
- Plant response rating, Dayflower, VA ([3]; Preemergence, 31 g ai/ha): 0
- Plant response rating, Dayflower, VA ([3]; Preemergence, 62 g ai/ha): 0
- Plant response rating, Dayflower, VA ([3]; Preemergence, 125 g ai/ha): 5
- Plant response rating, Field Bindweed ([4]; Postemergence, 16 g ai/ha): 75
- Plant response rating, Field Bindweed ([4]; Postemergence, 31 g ai/ha): 90
- Plant response rating, Field Bindweed ([4]; Postemergence, 62 g ai/ha): 90
- Plant response rating, Field Bindweed ([4]; Postemergence, 125 g ai/ha): 90
- Plant response rating, Field Bindweed ([4]; Preemergence, 16 g ai/ha): 5
- Plant response rating, Field Bindweed ([4]; Preemergence, 31 g ai/ha): 85
- Plant response rating, Field Bindweed ([4]; Preemergence, 62 g ai/ha): 90
- Plant response rating, Field Bindweed ([4]; Preemergence, 125 g ai/ha): 100
- Plant response rating, Foxtail, Green ([5]; 16 g ai/ha): 35
- Plant response rating, Foxtail, Green ([5]; 31 g ai/ha): 80
- Plant response rating, Foxtail, Green ([5]; 62 g ai/ha): 100
- Plant response rating, Foxtail, Green ([5]; 125 g ai/ha): 100
- Plant response rating, Goosegrass ([6]; 16 g ai/ha): 0
- Plant response rating, Goosegrass ([6]; 31 g ai/ha): 0
- Plant response rating, Goosegrass ([6]; 62 g ai/ha): 30
- Plant response rating, Goosegrass ([6]; 125 g ai/ha): 75
- Plant response rating, Beggarticks ([7]; Postemergence, 16 g ai/ha): 90
- Plant response rating, Beggarticks ([7]; Postemergence, 31 g ai/ha): 95
- Plant response rating, Beggarticks ([7]; Postemergence, 62 g ai/ha): 95
- Plant response rating, Beggarticks ([7]; Postemergence, 125 g ai/ha): 100
- Plant response rating, Beggarticks ([7]; Preemergence, 16 g ai/ha): 20
- Plant response rating, Beggarticks ([7]; Preemergence, 31 g ai/ha): 90
- Plant response rating, Beggarticks ([7]; Preemergence, 62 g ai/ha): 95
- Plant response rating, Beggarticks ([7]; Preemergence, 125 g ai/ha): 100
- Plant response rating, Johnsongrass ([8]; 16 g ai/ha): 0
- Plant response rating, Johnsongrass ([8]; 31 g ai/ha): 0
- Plant response rating, Johnsongrass ([8]; 125 g ai/ha): 50
- Plant response rating, Kochia (kochia (Kochia scoparia); Postemergence, 16 g ai/ha): 80
- Plant response rating, Kochia (kochia (Kochia scoparia); Postemergence, 31 g ai/ha): 75
- Plant response rating, Kochia (kochia (Kochia scoparia); Postemergence, 62 g ai/ha): 80
- Plant response rating, Kochia (kochia (Kochia scoparia); Postemergence, 125 g ai/ha): 90
- Plant response rating, Kochia (kochia (Kochia scoparia); Preemergence, 16 g ai/ha): 0
- Plant response rating, Kochia (kochia (Kochia scoparia); Preemergence, 31 g ai/ha): 50
- Plant response rating, Kochia (kochia (Kochia scoparia); Preemergence, 62 g ai/ha): 70
- Plant response rating, Kochia (kochia (Kochia scoparia); Preemergence, 125 g ai/ha): 85
- Plant response rating, Lambsquarters ([9]; 16 g ai/ha): 80
- Plant response rating, Lambsquarters ([9]; 31 g ai/ha): 95
- Plant response rating, Lambsquarters ([9]; 62 g ai/ha): 98
- Plant response rating, Lambsquarters ([9]; 125 g ai/ha): 100
- Plant response rating, Morningglory ([10]; 16 g ai/ha): 10
- Plant response rating, Morningglory ([10]; 31 g ai/ha): 20
- Plant response rating, Morningglory ([10]; 62 g ai/ha): 60
- Plant response rating, Morningglory ([10]; 125 g ai/ha): 100
- Plant response rating, Poinsettia, Wild ([11]; Postemergence, 16 g ai/ha): 20
- Plant response rating, Poinsettia, Wild ([11]; Postemergence, 31 g ai/ha): 50
- Plant response rating, Poinsettia, Wild ([11]; Postemergence, 62 g ai/ha): 40
- Plant response rating, Poinsettia, Wild ([11]; Postemergence, 125 g ai/ha): 50
- Plant response rating, Poinsettia, Wild ([11]; Preemergence, 16 g ai/ha): 0
- Plant response rating, Poinsettia, Wild ([11]; Preemergence, 31 g ai/ha): 0
- Plant response rating, Poinsettia, Wild ([11]; Preemergence, 62 g ai/ha): 0
- Plant response rating, Poinsettia, Wild ([11]; Preemergence, 125 g ai/ha): 0
- Plant response rating, Ryegrass, Italian ([12]; Postemergence, 16 g ai/ha): 70
- Plant response rating, Ryegrass, Italian ([12]; Postemergence, 31 g ai/ha): 80
- Plant response rating, Ryegrass, Italian ([12]; Postemergence, 62 g ai/ha): 85
- Plant response rating, Ryegrass, Italian ([12]; Postemergence, 125 g ai/ha): 90
- Plant response rating, Ryegrass, Italian ([12]; Preemergence, 16 g ai/ha): 0
- Plant response rating, Ryegrass, Italian ([12]; Preemergence, 31 g ai/ha): 25
- Plant response rating, Ryegrass, Italian ([12]; Preemergence, 62 g ai/ha): 98
- Plant response rating, Ryegrass, Italian ([12]; Preemergence, 125 g ai/ha): 95
- Plant response rating, Sandbur ([13]; Postemergence, 16 g ai/ha): 60
- Plant response rating, Sandbur ([13]; Postemergence, 31 g ai/ha): 60
- Plant response rating, Sandbur ([13]; Postemergence, 62 g ai/ha): 70
- Plant response rating, Sandbur ([13]; Postemergence, 125 g ai/ha): 85
- Plant response rating, Sandbur ([13]; Preemergence, 16 g ai/ha): 30
- Plant response rating, Sandbur ([13]; Preemergence, 31 g ai/ha): 75
- Plant response rating, Sandbur ([13]; Preemergence, 62 g ai/ha): 85
- Plant response rating, Sandbur ([13]; Preemergence, 125 g ai/ha): 90

Reference: US12435044B2, “Pyridazinone herbicides and pyridazinone intermediates used to prepare a herbicide” (FMC Corporation, priority 2018, dated 2025)
